Patent publication US9884832B2 (priority 2011, dated 2018)

These compounds were tested against AM2 S31 (wild-type serine at position 31 in the M2 protein), influenza virus A/Udorn/72 (Influenza A virus, UniProt P0DOF5) (assay: cell-based). Details: 100 uM; Xenopus oocytes; activity range class.
Sequence of AM2 S31 (wild-type serine at position 31 in the M2 protein), influenza virus A/Udorn/72 (P0DOF5 whole entry, looked up): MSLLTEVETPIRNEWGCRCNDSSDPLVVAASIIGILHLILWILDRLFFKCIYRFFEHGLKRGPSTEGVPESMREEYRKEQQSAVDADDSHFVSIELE
In the case of `F[B-](F)(F)c1ccc(CNC23CC4CC(CC(C4)C2)C3)cc1.[K+]` [Example 2a], the “S31 OOcyte Inhibition at 100 uM (%)” value is reported as “A ((A)=31-95%)”.

Same assay, conditions: 100 uM; Xenopus oocytes; activity range class; read-out: S31 OOcyte Inhibition at 100 uM (%)
In the case of `Cc1nc(CNC23CC4CC(CC(C4)C2)C3)c[nH]1` [Example 99a, N-((2-methyl-1H-imidazol-4-yl)methyl)adamantan-1-amine], the inhibition at 100 µM is reported as 0 to 30%. `Clc1ccc(COc2ccc(CNC34CC5CC(CC(C5)C3)C4)cc2)cc1` [Example 16a, Adamantan-1-yl-[4-(4-chloro-benzyloxy)-benzyl]-amine] showed an inhibition at 100 µM of 31 to 95%. Compound `CC(C)(C)c1nc(CNC23CC4CC(CC(C4)C2)C3)no1` [Example 103a, N-((5-(tert-butyl)-1,2,4-oxadiazol-3-yl)methyl)adamantan-1-amine] has an inhibition at 100 µM of 0 to 30%. `Cc1ccc(-c2ccc(CNC34CC5CC(CC(C5)C3)C4)s2)s1` [Example 141a, N-((5′-methyl-[2,2′-bithiophen]-5-yl)methyl)adamantan-1-amine] was tested, and the inhibition at 100 µM was 0 to 30%. For `COc1ccc(-c2nc(CNC34CC5CC(CC(C5)C3)C4)no2)cc1` [Example 126a, N-((5-(4-methoxyphenyl)-1,2,4-oxadiazol-3-yl)methyl)adamantan-1-amine], the inhibition at 100 µM was 0 to 30%. For `Cc1ccsc1CNC12CC3CC(CC(C3)C1)C2` [Example 76a, N-((3-methylthiophen-2-yl)methyl)adamantan-1-amine], the inhibition at 100 µM was 31 to 95%. Compound `c1coc(-c2ccc(CNC34CC5CC(CC(C5)C3)C4)s2)c1` [Example 136a, N-((5-(Furan-2-yl)thiophen-2-yl)methyl)adamantan-1-amine] has an inhibition at 100 µM of 0 to 30%. In the case of `Cn1c(CNC23CC4CC(CC(C4)C2)C3)cc2sccc21` [Example 172a, Adamantan-1-yl-(4-methyl-4H-thieno[3,2-b]pyrrol-5-ylmethyl)-amine], the inhibition at 100 µM is reported as 0 to 30%. With `Cc1ncc(CN(Cc2cnc(C)s2)C23CC4CC(CC(C4)C2)C3)s1` [Example 202a, N,N-bis((2-methylthiazol-5-yl)methyl)adamantan-1-amine] the inhibition at 100 µM was 0 to 30%. Work on `Brc1ccc(-c2ccc(CNC34CC5CC(CC(C5)C3)C4)s2)s1` [Example 159a, N-((5′-bromo-[2,2′-bithiophen]-5-yl)methyl)adamantan-1-amine] yielded an inhibition at 100 µM of 0 to 30%. With `c1ccc(-c2nc(CNC34CC5CC(CC(C5)C3)C4)no2)cc1` [Example 131a, N-((5-phenyl-1,2,4-oxadiazol-3-yl)methyl)adamantan-1-amine] the inhibition at 100 µM was 0 to 30%. For `OC12CC3CC(C1)CC(NCc1ccc(Br)s1)(C3)C2` [Example 188a, 3-[(5-Bromo-thiophen-2-ylmethyl)-amino]adamantan-1-ol], the inhibition at 100 µM was 0 to 30%. `Clc1ccc(-c2cc(CNC34CC5CC(CC(C5)C3)C4)no2)cc1` [Example 119a, N-((5-(4-chlorophenyl)isoxazol-3-yl)methyl)adamantan-1-amine] gave an inhibition at 100 µM of 0 to 30%. For `c1cc(-c2cc(CNC34CC5CC(CC(C5)C3)C4)no2)cs1` [Example 150a, Adamantan-1-yl-(5-thiophen-3-yl-isoxazol-3-ylmethyl)-amine], the inhibition at 100 µM was 0 to 30%. `c1cc(CNC23CC4CC(CC(C4)C2)C3)cc(-c2cccs2)c1` [Example 34a, N-(3-(thiophen-2-yl)benzyl)adamantan-1-amine] gave an inhibition at 100 µM of 0 to 30%. In the case of `Clc1ccc(/C=C/CNC23CC4CC(CC(C4)C2)C3)cc1` [Example 200a, N-((E)-3-(4-chlorophenyl)allyl)adamantan-1-amine], the inhibition at 100 µM is reported as 0 to 30%. `CC(NC12CC3CC(CC(C3)C1)C2)c1ccc(I)s1` (stereo not shown) [Example 82a, N-(1-(5-iodothiophen-2-yl)ethyl)adamantan-1-amine] showed an inhibition at 100 µM of 31 to 95%. With `c1nc(CNC23CC4CC(CC(C4)C2)C3)no1` [Example 73a, Adamantan-1-yl-[1,2,4]oxadiazol-3-ylmethyl-amine] the inhibition at 100 µM was 31 to 95%. `c1csc(-c2ccc(CNC34CC5CC(CC(C5)C3)C4)o2)c1` [Example 138a, Adamantan-1-yl-(5-thiophen-2-yl-furan-2-ylmethyl)-amine] gave an inhibition at 100 µM of 0 to 30%. Compound `c1csc(-c2cc(CNC34CC5CC(CC(C5)C3)C4)no2)c1` [Example 142a, N-((5-(thiophen-2-yl)isoxazol-3-yl)methyl)adamantan-1-amine] has an inhibition at 100 µM of 0 to 30%. `Cc1ccc(-c2ccc(CNC34CC5CC(CC(C5)C3)C4)cc2)o1.Cl` [Example 32a, N-(4-(5-Methylfuran-2-yl)benzyl)adamantan-1-amine hydrochloride] gave an inhibition at 100 µM of 0 to 30%. Compound `Brc1ccc(CNC23CC4CC(CC(C4)C2)C3)[nH]1` [Example 88a, Adamantan-1-yl-(5-bromo-1H-pyrrol-2-ylmethyl)-amine] has an inhibition at 100 µM of 31 to 95%. `c1ccc(-c2cc(CNC34CC5CC(CC(C5)C3)C4)on2)cc1` [Example 164a] gave an inhibition at 100 µM of 0 to 30%. `Cc1ccc(C(C)NC23CC4CC(CC(C4)C2)C3)s1` (stereo not shown) [Example 97a, N-(1-(5-methylthiophen-2-yl)ethyl)adamantan-1-amine] showed an inhibition at 100 µM of 0 to 30%. Compound `c1ccc(-c2ncc(CNC34CC5CC(CC(C5)C3)C4)cn2)cc1` [Example 63a, N-((2-phenylpyrimidin-5-yl)methyl)adamantan-1-amine] has an inhibition at 100 µM of 0 to 30%. For `Oc1cc(-c2cccs2)ccc1CNC12CC3CC(CC(C3)C1)C2` [Example 49a], the inhibition at 100 µM was 0 to 30%. Compound `Brc1nc(CNC23CC4CC(CC(C4)C2)C3)cs1` [Example 83a, N-((2-bromothiazol-4-yl)methyl)adamantan-1-amine] has an inhibition at 100 µM of 31 to 95%.

Same assay, conditions: 100 uM; Xenopus oocytes; numeric value; read-out: S31 OOcyte Inhibition at 100 uM (%)
`c1cn(-c2ccc(CNC34CC5CC(CC(C5)C3)C4)cc2)cn1` [Example 36a, N-(4-(1H-imidazol-1-yl)benzyl)adamantan-1-amine] was tested, and the inhibition at 100 µM was 16.1%.

Same assay, conditions: Table 1; 100 uM; Xenopus oocytes, pH 5.5, -20 mV; read-out: S31 OOcyte Inhibition at 100 uM (%)
Compound `c1cc2[nH]c(CNC34CC5CC(CC(C5)C3)C4)cc2s1` [Example 80, Adamantan-1-yl-(4H-thieno[3,2-b]pyrrol-5-ylmethyl)-amine] has an inhibition at 100 µM of 31 to 95%. `Cc1cc(CNC23CC4CC(CC(C4)C2)C3)ccc1O` [Example 51, 4-(Adamantan-1-ylaminomethyl)-2-methyl-phenol] was tested, and the inhibition at 100 µM was 31 to 95%. Work on `NC(=O)c1ccc(CNC23CC4CC(CC(C4)C2)C3)cc1` [Example 18, 4-(Adamantan-1-ylaminomethyl)-benzamide] yielded an inhibition at 100 µM of 0 to 30%. With `Oc1c(CNC23CC4CC(CC(C4)C2)C3)ccc2ccccc12` [Example 97, 2-(Adamantan-1-ylaminomethyl)-naphthalen-1-ol] the inhibition at 100 µM was 31 to 95%. Compound `Oc1ccc(CNC23CC4CC(CC(C4)C2)C3)c(Cl)c1` [Example 58, 4-(Adamantan-1-ylaminomethyl)-3-chloro-phenol] has an inhibition at 100 µM of 31 to 95%. For `Fc1ccc(CNC23CC4CC(CC(C4)C2)C3)c(F)c1` [Example 54, Adamantan-1-yl-(2,4-difluoro-benzyl)-amine], the inhibition at 100 µM was 31 to 95%. In the case of `c1cc(COc2ccc(CNC34CC5CC(CC(C5)C3)C4)cc2)co1` [Example 22, Adamantan-1-yl-[4-(furan-3-ylmethoxy)-benzyl]-amine], the inhibition at 100 µM is reported as 31 to 95%. In the case of `c1ccc2[nH]c(CNC34CC5CC(CC(C5)C3)C4)cc2c1` [Example 93, Adamantan-1-yl-(1H-indol-2-ylmethyl)-amine], the inhibition at 100 µM is reported as 0 to 30%. Work on `c1cc2cn[nH]c2cc1CNC12CC3CC(CC(C3)C1)C2` [Example 95, Adamantan-1-yl-(1H-indazol-6-ylmethyl)-amine] yielded an inhibition at 100 µM of 31 to 95%.

Same assay, conditions: Table 3; 100 uM; Xenopus oocytes, pH 5.5, -20 mV; read-out: S31 OOcyte Inhibition at 100 uM (%)
In the case of `c1nc(CNC23CC4CC(CC(C4)C2)C3)sc1C1CC1` [Example 65b, Adamantan-1-yl-(5-cyclopropyl-thiazol-2-ylmethyl)-amine], the inhibition at 100 µM is reported as 0 to 30%. For `COc1ccc(Cc2nc(CNC34CC5CC(CC(C5)C3)C4)no2)cc1OC` [Example 28b, N-((5-(3,4-dimethoxybenzyl)-1,2,4-oxadiazol-3-yl)methyl)adamantan-1-amine], the inhibition at 100 µM was 0 to 30%. Compound `Oc1cc(F)ccc1CNC12CC3CC(CC(C3)C1)C2` [Example 6b] has an inhibition at 100 µM of 31 to 95%. `Fc1cccc(F)c1-c1cc(CNC23CC4CC(CC(C4)C2)C3)no1` [Example 38b, N-((5-(2,6-difluorophenyl)isoxazol-3-yl)methyl)adamantan-1-amine] was tested, and the inhibition at 100 µM was 0 to 30%. With `Oc1cc(-c2ccsc2)ccc1CNC12CC3CC(CC(C3)C1)C2` [Example 8b] the inhibition at 100 µM was 0 to 30%. For `CSc1ccccc1-c1cc(CNC23CC4CC(CC(C4)C2)C3)no1` [Example 42b, N-((5-(2-(methylthio)phenyl)isoxazol-3-yl)methyl)adamantan-1-amine], the inhibition at 100 µM was 0 to 30%. For `CN(C)c1ncc(CNC23CC4CC(CC(C4)C2)C3)cn1` [Example 59b, N-((2-dimethylaminopyrimidin-5-yl)methyl)adamantan-1-amine], the inhibition at 100 µM was 0 to 30%. `C1CCC(c2nc(CNC34CC5CC(CC(C5)C3)C4)no2)CC1` [Example 24b] showed an inhibition at 100 µM of 31 to 95%. For `Clc1ccc(CNC23CC4CC(CC(C4)C2)C3)cc1` [Example 1b, N-(4-Chlorobenzyl)adamantan-1-amine], the inhibition at 100 µM was 31 to 95%. `Cc1noc(C)c1-c1nc(CNC23CC4CC(CC(C4)C2)C3)no1` [Example 25b, N-((5-(3,5-dimethylisoxazol-4-yl)-1,2,4-oxadiazol-3-yl)methyl)adamantan-1-amine] gave an inhibition at 100 µM of 0 to 30%. In the case of `Clc1ncc(CNC23CC4CC(CC(C4)C2)C3)s1` [Example 13b, N-((2-chlorothiazol-5-yl)methyl)adamantan-1-amine], the inhibition at 100 µM is reported as 31 to 95%. Compound `CC(NC12CC3CC(CC(C3)C1)C2)c1ccc(-c2ccccc2)cc1` (stereo not shown) [Example 4b, N-(1-([1,1′-biphenyl]-4-yl)ethyl)adamantan-1-amine] has an inhibition at 100 µM of 31 to 95%. With `CSC(C)(C)Cc1cc(CNC23CC4CC(CC(C4)C2)C3)no1` [Example 46b, N-((5-(2-methyl-2-(methylthio)propyl)isoxazol-3-yl)methyl)adamantan-1-amine] the inhibition at 100 µM was 0 to 30%. `c1sc(CNC23CC4CC(CC(C4)C2)C3)cc1C1CC1` [Example 48b, N-((4-Cyclopropylthiophen-2-yl)methyl)adamantan-1-amine] showed an inhibition at 100 µM of 0 to 30%.
